Drawing on US6262106A, “Adamantanecarboximidamide derivatives and their use as NMDA antagonists” (priority 1998, dated 2001), this text covers IC50, Ratio and side effects for nine molecules.

In general, IC50 refers to the concentration that inhibits the measured activity by half. High values mean weaker potency, low ones greater potency.

Counter-ions that a name gives are not always drawn.

Series [1] concerns the target PCP site of the NMDA receptor (cerebellar NMDA receptors). Kind of series: NMDA receptor binding, [3H]-MK-801 displacement at PCP site, rat cerebellar membranes. Particulars: rat cerebellum membranes; [3H]-MK-801 5 nM; 10 μM glutamate, 10 μM glycine; 120 min, room temperature. The source says: (§1) The NMDA receptor contains several distinct binding domains that can regulate opening of the cationic channel. The phencyclidine (PCP) site of the NMDA receptor can be radiolabelled with [^3 H]-(+)-5-methyl-10,11-dihydro-5H-dibenzo[a,d]cyclohepten-5,10-imine hydrogen maleate, [^3 H-MK-801]. The following describes the procedure for determining the affinity of compounds for the PCP site in rat cortical or cerebellar membranes.
(§2) Frozen rat cortex or cerebellum, homogenized in 10 volumes of ice-cold 0.32-M. sucrose is centrifuged at 1,000 g for 12 min and the supernatant stored on ice whilst the pellet is resuspended, rehomogenized and recentrifuged twice more. The three final supernatants are pooled and centrifuged at 30,000 g for 40 min at 4° C. to yield P2 pellets. These are resuspended in ice-cold distilled water, and centrifuged at 30,000 g for 50 min at 4° C. Following three further washes in distilled water, the P2 pellets are stored at -20° C. for at least 18 h. On the day of the assay, membrane pellets are thawed at room temperature, resuspended in ice-cold distilled water and centrifuged at 30,000 g for 20 min. The pellets are resuspended in 50-mM tris-HCl (pH:7.4) and recentrifuged twice more before being resuspended in tris-HCl for immediate use in the assay. Binding assays are performed at equilibrium in a total volume of 200 μL, containing [^3 H]-MK-801 (5-nM final conc.), 10-μM glutamate, 10-μM glycine, 160 μL of membrane preparation and additional drugs where appropriate. Non-specific binding is determined using MK-801 (10-μM). The assay is incubated for 120 min at room temperature. The incubation is terminated by rapid filtration through Whatman GF/B filters (pre-soaked in 0.1% PEI solution). The assay tubes and filters are washed five times with 1 mL of ice-cold assay buffer. The filters are placed in poly-Q mini vials with approximately 5 mL of scintillation fluid. The vials are then shaken and left for at least 8 h before being counted on a liquid scintillation counter. To determine the free ligand concentration 3 aliquots (20 μL) of the [^3 H]-MK-801 working solution are also counted. Concentration response data for drugs is analysed using a 4 parameter equation fitted by non-linear regression. This yields the half maximally effective drug concentration (IC50) and Hill coefficient.

Series [2] deals with PCP site of the NMDA receptor (cortical NMDA receptors). Kind of series: NMDA receptor binding, [3H]-MK-801 displacement at PCP site, rat cortical membranes. To be noted: for Ratio: (IC50 Cortex / IC50 Cerebellum); for IC50: rat cortex membranes, [3H]-MK-801 5 nM, 10 μM glutamate, 10 μM glycine, 120 min, room temperature.
Excerpt: as §1, §2

For series [3] the following is noted: known NMDA antagonists, administration; cited from earlier work.

In the case of `Cc1ccc(C2(C(=N)N)C3CC4CC(C3)CC2C4)cc1` (stereo not shown) [Example 4, 2-(4-Methylphenyl)-2-adamantanecarboximidamide hydrochloride], in series [1], the IC50 was determined as 56 µM. In series [2], the Ratio was determined as 1.9 and the IC50 was 105 µM.

In turn, `N=C(N)C1(c2ccc(Cl)cc2)C2CC3CC(C2)CC1C3` (stereo not shown) [Example 7, 2-(4-Chlorophenyl)-2-adamantanecarboximidamide hydrochloride] had a half-maximal inhibitory concentration (IC50) in series [1] of 34 µM. In addition, in series [2], the Ratio worked out at 1.7 and the IC50 was determined as 59 µM.

Take `COc1ccc(C2(C(=N)N)C3CC4CC(C3)CC2C4)cc1` (stereo not shown) [Example 8, 2-(4-Methoxyphenyl)-2-adamantanecarboximidamide hydrochloride]: the IC50 in series [1] worked out at 22 µM; in series [2], 45 µM. Further, in series [2], the Ratio worked out at 2.0.

`c1ccc(C2(N3CCCCC3)CCCCC2)cc1` [PCP, phencyclidine]: the side effects result in series [3] is “perceptual and cognitive disturbances of a kind that resemble naturally-occurring psychotic states”.

In the case of `C[C@]12N[C@H](Cc3ccccc31)c1ccccc12` [Dizocilpine], in series [3], the side effects result was “perceptual and cognitive disturbances of a kind that resemble naturally-occurring psychotic states”.

As to `CCc1cccc(N(C)C(N)=Nc2cccc3ccccc23)c1` [Cerestat], the side effects result in series [3] was “perceptual and cognitive disturbances of a kind that resemble naturally-occurring psychotic states”.

On to `N=C(N)C1(c2ccc(F)cc2)C2CC3CC(C2)CC1C3` (stereo not shown) [Example 6, 2-(4-Fluorophenyl)-2-adamantanecarboximidamide hydrochloride], for which the IC50 in series [1] turned out to be 25 µM. Also, in series [2], the Ratio was 1.8 and the IC50 was found to be 44 µM.

As for `CNC1(c2ccccc2Cl)CCCCC1=O` (stereo not shown) [Ketamine], the side effects entry in series [3] is “perceptual and cognitive disturbances of a kind that resemble naturally-occurring psychotic states”.

In the case of `Cc1ccccc1C1(C(=N)N)C2CC3CC(C2)CC1C3.Cl` (stereo not shown) [Example 5, 2-(2-Methylphenyl)-2-adamantanecarboximidamide hydrochloride], in series [1], the IC50 is 31 µM. In series [2], the Ratio is 1.7 and the IC50 is 53 µM.
